Tests used:
Assay type in all cases: in vivo
Chilo suppressalis = assay: Example B4: Chilo suppressalis (striped rice stemborer), artificial diet, L2 larvae; details: 144 h, application rate of 200 ppm, 6 days after infestation, read-out: control in at least one of the three categories (mortality, anti-feedant effect or growth inhibition)
Method: Example B4: Chilo suppressalis (Striped Rice Stemborer)
24-well microtiter plates with artificial diet were treated with aqueous test solutions prepared from 10′000 ppm DMSO stock solutions by pipetting. After drying, the plates were infested with L2 larvae (6-8 per well). The samples were assessed for mortality, anti-feeding effect, and growth inhibition in comparison to untreated samples 6 days after infestation. Control of Chilo suppressalis by a test sample is given when at least one of the categories mortality, anti-feedant effect, and growth inhibition is higher than the untreated sample.

Euschistus heros = assay: Example B2: Euschistus heros (neotropical brown stink bug), soybean leaves sprayed, N2 nymphs; details: 120 h, application rate of 200 ppm, 5 days after infestation, N2 nymphs on soybean leaves, read-out: control in at least one of the two categories (mortality or growth inhibition)
Method: Example B2: Euschistus heros (Neotropical Brown Stink Bug)
Soybean leaves on agar in 24-well microtiter plates were sprayed with aqueous test solutions prepared from 10′000 ppm DMSO stock solutions. After drying the leaves were infested with N2 nymphs. The samples were assessed for mortality and growth inhibition in comparison to untreated samples 5 days after infestation.

Diabrotica balteata = assay: Example B1: Diabrotica balteata (corn root worm), maize sprouts sprayed, L2 larvae; details: 96 h, application rate of 200 ppm, 4 days after infestation, L2 larvae on maize sprouts, read-out: control in at least one of the two categories (mortality or growth inhibition)
Method: Example B1: Diabrotica balteata (Corn Root Worm)
Maize sprouts placed onto an agar layer in 24-well microtiter plates were treated with aqueous test solutions prepared from 10′000 ppm DMSO stock solutions by spraying. After drying, the plates were infested with L2 larvae (6 to 10 per well). The samples were assessed for mortality and growth inhibition in comparison to untreated samples 4 days after infestation.

Plutella xylostella [1] = assay: Example B5: Plutella xylostella (diamond back moth), artificial diet, 24-well, eggs; details: 192 h, application rate of 200 ppm, 8 days after infestation, read-out: control in at least one of the two categories (mortality or growth inhibition)
Method: Example B5: Plutella xylostella (Diamond Back Moth)
24-well microtiter plates with artificial diet were treated with aqueous test solutions prepared from 10′000 ppm DMSO stock solutions by pipetting. After drying, Plutella eggs were pipetted through a plastic stencil onto a gel blotting paper and the plate was closed with it. The samples were assessed for mortality and growth inhibition in comparison to untreated samples 8 days after infestation.

Myzus persicae [2] = assay: Example B8: Myzus persicae (green peach aphid) intrinsic activity; details: 120 h, test rate of 12 ppm, 5 days after infestation, sucrose solution
Text: Example B8: Myzus persicae (Green Peach Aphid). Intrinsic Activity
Test compounds prepared from 10′000 ppm DMSO stock solutions were applied by pipette into 24-well microtiter plates and mixed with sucrose solution. The plates were closed with a stretched Parafilm. A plastic stencil with 24 holes was placed onto the plate and infested pea seedlings were placed directly on the Parafilm. The infested plate was closed with a gel blotting paper and another plastic stencil and then turned upside down. The samples were assessed for mortality 5 days after infestation.

Spodoptera littoralis [3] = assay: Example B9: Spodoptera littoralis (Egyptian cotton leaf worm), cotton leaf discs sprayed, L1 larvae; details: foliar, 72 h, application rate of 200 ppm, 3 days after infestation, read-out: control in at least one of the three categories (mortality, anti-feedant effect or growth inhibition)
Spodoptera littoralis [4] = assay: Example B10: Spodoptera littoralis (Egyptian cotton leaf worm), uptake by lettuce roots from agar; details: 144 h, test rate of 12.5 ppm, 6 days after infestation, lettuce grown on treated agar, read-out: control in at least one of the three categories (mortality, anti-feeding, or growth inhibition)
Text: Example B10: Spodoptera littoralis (Egyptian Cotton Leaf Worm)
Test compounds were applied by pipette from 10′000 ppm DMSO stock solutions into 24-well plates and mixed with agar. Lettuce seeds were placed onto the agar and the multi well plate was closed by another plate which contained also agar. After 7 days the compound was absorbed by the roots and the lettuce grew into the lid plate. The lettuce leaves were then cut off into the lid plate. Spodoptera eggs were pipetted through a plastic stencil onto a humid gel blotting paper and the lid plate was closed with it. The samples were assessed for mortality, anti-feedant effect and growth inhibition in comparison to untreated samples 6 days after infestation.

Myzus persicae [5] = assay: Example B13: Myzus persicae (green peach aphid), 96-well sucrose solution; details: 120 h, application rate of 50 ppm, 5 days after infestation
Text: Example B13: Myzus persicae (Green Peach Aphid)
Test compounds prepared from 10′000 ppm DMSO stock solutions were applied by a liquid handling robot into 96-well microtiter plates and mixed with a sucrose solution. Parafilm was stretched over the 96-well microtiter plate and a plastic stencil with 96 holes was placed onto the plate. Aphids were sieved into the wells directly onto the Parafilm. The infested plates were closed with a gel blotting card and a second plastic stencil and then turned upside down. The samples were assessed for mortality 5 days after infestation.

Plutella xylostella [6] = assay: Example B14: Plutella xylostella (diamondback moth), 96-well artificial diet; details: 216 h, application rate of 500 ppm, 9 days after infestation
Method: Example B14: Plutella xylostella (Diamondback Moth)
96-well microtiter plates containing artificial diet were treated with aqueous test solutions, prepared from 10′000 ppm DMSO stock solutions, by a liquid handling robot. After drying, eggs (˜30 per well) were infested onto a netted lid which was suspended above the diet. The eggs hatch and L1 larvae move down to the diet. The samples were assessed for mortality 9 days after infestation.

Myzus persicae [7] = assay: Example B7: Myzus persicae (green peach aphid) systemic activity; details: 144 h, test rate of 24 ppm, 6 days after placing seedlings into test solutions, pea seedlings
Method: Example B7: Myzus persicae (Green Peach Aphid) Systemic Activity
Roots of pea seedlings infested with an aphid population of mixed ages were placed directly into aqueous test solutions prepared from 10′000 DMSO stock solutions. The samples were assessed for mortality 6 days after placing seedlings into test solutions.

Tetranychus urticae = assay: Example B11: Tetranychus urticae (two-spotted spider mite) feeding/contact activity; details: foliar, 192 h, application rate of 200 ppm, 8 days after infestation, bean leaf discs, mixed population (mobile stages)
Method: Example B11: Tetranychus urticae (Two-Spotted Spider Mite): Feeding/Contact Activity
Bean leaf discs on agar in 24-well microtiter plates were sprayed with aqueous test solutions prepared from 10′000 ppm DMSO stock solutions. After drying the leaf discs were infested with a mite population of mixed ages. The samples were assessed for mortality on mixed population (mobile stages) 8 days after infestation.

Myzus persicae [8] = assay: Example B6: Myzus persicae (green peach aphid) feeding/contact activity; details: foliar, 144 h, application rate of 200 ppm, 6 days after infestation, sunflower leaf discs
Method: Example B6: Myzus persicae (Green Peach Aphid) Feeding/Contact Activity
Sunflower leaf discs were placed onto agar in a 24-well microtiter plate and sprayed with aqueous test solutions prepared from 10′000 ppm DMSO stock solutions. After drying, the leaf discs were infested with an aphid population of mixed ages. The samples were assessed for mortality 6 days after infestation.

CC(NC(=O)c1cc(C(F)(F)F)cc(C(F)(F)F)c1)c1nccnc1-c1ncccn1 (stereo not drawn) [Compound P12, N-[1-(3-pyrimidin-2-ylpyrazin-2-yl)ethyl]-3,5-bis(trifluoromethyl)benzamide]
≥ 80%: percent control (mortality, anti-feedant effect or growth inhibition) at 200 ppm (Chilo suppressalis) | percent control (mortality or growth inhibition) at 200 ppm (Euschistus heros) | percent control (mortality or growth inhibition) at 200 ppm (Diabrotica balteata) | percent control (mortality or growth inhibition) at 200 ppm (Plutella xylostella [1]) | mortality at 12 ppm (Myzus persicae [2]) | percent control (mortality, anti-feedant effect or growth inhibition) at 200 ppm (Spodoptera littoralis [3])

CC(NC(=O)c1cc(OCC(F)F)cc(C(F)(F)F)c1)c1nccnc1-c1ncccn1 (stereo not drawn) [Compound P14, 3-(2,2-difluoroethoxy)-N-[1-(3-pyrimidin-2-ylpyrazin-2-yl)ethyl]-5-(trifluoromethyl)benzamide]
≥ 80%: percent control (mortality, anti-feeding or growth inhibition) at 12.5 ppm (Spodoptera littoralis [4]) | mortality at 50 ppm (Myzus persicae [5]) | percent control (mortality, anti-feedant effect or growth inhibition) at 200 ppm (Chilo suppressalis) | percent control (mortality or growth inhibition) at 200 ppm (Euschistus heros) | mortality at 500 ppm (Plutella xylostella [6]) | percent control (mortality or growth inhibition) at 200 ppm (Plutella xylostella [1]) | mortality at 24 ppm (Myzus persicae [7]) | mortality at 12 ppm (Myzus persicae [2]) | percent control (mortality, anti-feedant effect or growth inhibition) at 200 ppm (Spodoptera littoralis [3])

CC(NC(=O)c1cc(C(F)(F)F)nc(C(F)(F)F)c1)c1nccnc1-c1ncccn1 (stereo not drawn) [Compound P15, N-[1-(3-pyrimidin-2-ylpyrazin-2-yl)ethyl]-2,6-bis(trifluoromethyl)pyridine-4-carboxamide]
≥ 80%: mortality at 50 ppm (Myzus persicae [5]) | percent control (mortality, anti-feedant effect or growth inhibition) at 200 ppm (Chilo suppressalis) | percent control (mortality or growth inhibition) at 200 ppm (Euschistus heros) | mortality at 500 ppm (Plutella xylostella [6]) | percent control (mortality or growth inhibition) at 200 ppm (Diabrotica balteata) | percent control (mortality or growth inhibition) at 200 ppm (Plutella xylostella [1]) | mortality at 12 ppm (Myzus persicae [2]) | percent control (mortality, anti-feedant effect or growth inhibition) at 200 ppm (Spodoptera littoralis [3])

CC(NC(=O)c1cc(Cl)cc(OC(F)(F)F)c1)c1nccnc1-c1ncccn1 (stereo not drawn) [Compound P16, 3-chloro-N-[1-(3-pyrimidin-2-ylpyrazin-2-yl)ethyl]-5-(trifluoromethoxy)benzamide]
≥ 80%: percent control (mortality, anti-feeding or growth inhibition) at 12.5 ppm (Spodoptera littoralis [4]) | mortality at 50 ppm (Myzus persicae [5]) | percent control (mortality, anti-feedant effect or growth inhibition) at 200 ppm (Chilo suppressalis) | percent control (mortality or growth inhibition) at 200 ppm (Euschistus heros) | mortality at 500 ppm (Plutella xylostella [6]) | percent control (mortality or growth inhibition) at 200 ppm (Diabrotica balteata) | percent control (mortality or growth inhibition) at 200 ppm (Plutella xylostella [1]) | mortality at 12 ppm (Myzus persicae [2]) | percent control (mortality, anti-feedant effect or growth inhibition) at 200 ppm (Spodoptera littoralis [3])

CC(NC(=O)c1cc(OCC(F)(F)F)cc(C(F)(F)F)c1)c1nccnc1-c1ncccn1 (stereo not drawn) [Compound P17, N-[1-(3-pyrimidin-2-ylpyrazin-2-yl)ethyl]-3-(2,2,2-trifluoroethoxy)-5-(trifluoromethyl)benzamide]
≥ 80%: mortality at 50 ppm (Myzus persicae [5]) | percent control (mortality, anti-feedant effect or growth inhibition) at 200 ppm (Chilo suppressalis) | percent control (mortality or growth inhibition) at 200 ppm (Euschistus heros) | mortality at 500 ppm (Plutella xylostella [6]) | percent control (mortality or growth inhibition) at 200 ppm (Plutella xylostella [1]) | mortality at 12 ppm (Myzus persicae [2]) | percent control (mortality, anti-feedant effect or growth inhibition) at 200 ppm (Spodoptera littoralis [3])

CC(NC(=O)c1cc(C(F)(F)F)cc(C(F)(F)F)c1)c1nccnc1-c1ccc(F)cn1 (stereo not drawn) [Compound P18, N-[1-[3-(5-fluoro-2-pyridyl)pyrazin-2-yl]ethyl]-3,5-bis(trifluoromethyl)benzamide]
≥ 80%: mortality at 50 ppm (Myzus persicae [5]) | percent control (mortality, anti-feedant effect or growth inhibition) at 200 ppm (Chilo suppressalis) | mortality at 500 ppm (Plutella xylostella [6]) | percent control (mortality or growth inhibition) at 200 ppm (Diabrotica balteata) | percent control (mortality, anti-feedant effect or growth inhibition) at 200 ppm (Spodoptera littoralis [3]) | mortality at 200 ppm (Tetranychus urticae)

CC(NC(=O)c1cc(Br)cc(C(F)(F)F)c1)c1nccnc1-c1ncccn1 (stereo not drawn) [Compound P20, 3-bromo-N-[1-(3-pyrimidin-2-ylpyrazin-2-yl)ethyl]-5-(trifluoromethyl)benzamide]
≥ 80%: percent control (mortality, anti-feeding or growth inhibition) at 12.5 ppm (Spodoptera littoralis [4]) | mortality at 50 ppm (Myzus persicae [5]) | percent control (mortality, anti-feedant effect or growth inhibition) at 200 ppm (Chilo suppressalis) | percent control (mortality or growth inhibition) at 200 ppm (Euschistus heros) | mortality at 500 ppm (Plutella xylostella [6]) | percent control (mortality or growth inhibition) at 200 ppm (Diabrotica balteata) | percent control (mortality or growth inhibition) at 200 ppm (Plutella xylostella [1]) | mortality at 12 ppm (Myzus persicae [2]) | percent control (mortality, anti-feedant effect or growth inhibition) at 200 ppm (Spodoptera littoralis [3])

CC(NC(=O)c1cc(Cl)cc(C(F)(F)F)c1)c1nccnc1-c1ncccn1 (stereo not drawn) [Compound P21, 3-chloro-N-[1-(3-pyrimidin-2-ylpyrazin-2-yl)ethyl]-5-(trifluoromethyl)benzamide]
≥ 80%: percent control (mortality, anti-feeding or growth inhibition) at 12.5 ppm (Spodoptera littoralis [4]) | mortality at 50 ppm (Myzus persicae [5]) | percent control (mortality, anti-feedant effect or growth inhibition) at 200 ppm (Chilo suppressalis) | percent control (mortality or growth inhibition) at 200 ppm (Euschistus heros) | mortality at 500 ppm (Plutella xylostella [6]) | percent control (mortality or growth inhibition) at 200 ppm (Diabrotica balteata) | percent control (mortality or growth inhibition) at 200 ppm (Plutella xylostella [1]) | mortality at 12 ppm (Myzus persicae [2]) | percent control (mortality, anti-feedant effect or growth inhibition) at 200 ppm (Spodoptera littoralis [3])

CC(NC(=O)c1cc(C(F)F)cc(C(F)(F)F)c1)c1nccnc1-c1ncccn1 (stereo not drawn) [Compound P22, 3-(difluoromethyl)-N-[1-(3-pyrimidin-2-ylpyrazin-2-yl)ethyl]-5-(trifluoromethyl)benzamide]
≥ 80%: percent control (mortality, anti-feeding or growth inhibition) at 12.5 ppm (Spodoptera littoralis [4]) | mortality at 50 ppm (Myzus persicae [5]) | percent control (mortality, anti-feedant effect or growth inhibition) at 200 ppm (Chilo suppressalis) | percent control (mortality or growth inhibition) at 200 ppm (Euschistus heros) | mortality at 500 ppm (Plutella xylostella [6]) | percent control (mortality or growth inhibition) at 200 ppm (Diabrotica balteata) | percent control (mortality or growth inhibition) at 200 ppm (Plutella xylostella [1]) | mortality at 24 ppm (Myzus persicae [7]) | mortality at 12 ppm (Myzus persicae [2]) | percent control (mortality, anti-feedant effect or growth inhibition) at 200 ppm (Spodoptera littoralis [3])

CC(c1nccnc1-c1ncccn1)N(CC1CC1)C(=O)c1cc(OC(F)F)cc(C(F)(F)F)c1 (stereo not drawn) [Compound P24, N-(cyclopropylmethyl)-3-(difluoromethoxy)-N-[1-(3-pyrimidin-2-ylpyrazin-2-yl)ethyl]-5-(trifluoromethyl)benzamide]
≥ 80%: mortality at 50 ppm (Myzus persicae [5]) | percent control (mortality, anti-feedant effect or growth inhibition) at 200 ppm (Chilo suppressalis) | percent control (mortality or growth inhibition) at 200 ppm (Diabrotica balteata) | percent control (mortality or growth inhibition) at 200 ppm (Plutella xylostella [1]) | mortality at 200 ppm (Myzus persicae [8]) | mortality at 12 ppm (Myzus persicae [2]) | percent control (mortality, anti-feedant effect or growth inhibition) at 200 ppm (Spodoptera littoralis [3]) | mortality at 200 ppm (Tetranychus urticae)

Source: patent publication US12528788B2, “Pesticidally active benzene- and azine-amide compounds” (SYNGENTA CROP PROTECTION AG, priority 2018, dated 2026)
